Test results from ChEMBL document CHEMBL1909639, “Synthesis, stereochemistry and in vitro antimicrobial evaluation of novel 2-[(2,4-diaryl-3-azabicyclo[3.3.1]nonan-9-ylidene)hydrazono]-4-phenyl-2,3-dihydrothiazoles” (2011).
Values after ≈ are worked out from the molar mass of the structure shown. Active and inactive are the calls of the source. No cut-off for these calls is given here.

Legend:
Aspergillus flavus [1] = assay: Antifungal activity against Aspergillus flavus ATCC 485 after 72 to 96 hrs by twofold serial dilution method; assay type: functional
Escherichia coli [2] = assay: Antibacterial activity against Escherichia coli ATCC 25835 after 24 hrs by twofold serial dilution method; assay type: functional; settings: ATCC 25835, 24 h
Staphylococcus aureus = assay: Antibacterial activity against Staphylococcus aureus ATCC 25825 after 24 hrs by twofold serial dilution method; assay type: functional; settings: ATCC 25825, 24 h
Klebsiella pneumoniae [3] = assay: Antibacterial activity against Klebsiella pneumoniae ATCC 15490 after 24 hrs by twofold serial dilution method; assay type: functional; settings: ATCC 15490, 24 h
Candida albicans = assay: Antifungal activity against Candida albicans ATCC 3122 by twofold serial dilution method; assay type: functional
Bacillus subtilis [4] = assay: Antibacterial activity against Bacillus subtilis ATCC 451 after 24 hrs by twofold serial dilution method; assay type: functional; settings: ATCC 451, 24 h
Salmonella typhi [5] = assay: Antibacterial activity against Salmonella typhi ATCC 24915 after 24 hrs by twofold serial dilution method; assay type: functional, Salmonella enterica subsp. enterica serovar Typhi; settings: Salmonella enterica, ATCC 24915, 24 h
Cryptococcus neoformans [6] = assay: Antifungal activity against Cryptococcus neoformans ATCC 3312 at 200 ug/mL after 72 to 96 hrs by twofold serial dilution method; assay type: functional, organism-based
Aspergillus niger = assay: Antifungal activity against Aspergillus niger ATCC 598 after 72 to 96 hrs by twofold serial dilution method; assay type: functional
Rhizopus [7] = assay: Antifungal activity against Rhizopus sp. ATCC 2915 after 72 to 96 hrs by twofold serial dilution method; assay type: functional
Cryptococcus neoformans [8] = assay: Antifungal activity against Cryptococcus neoformans ATCC 3312 after 72 to 96 hrs by twofold serial dilution method; assay type: functional
Escherichia coli [9] = assay: Ratio of compound MIC over streptomycin MIC for Escherichia coli ATCC 25835; assay type: functional
Klebsiella pneumoniae [10] = assay: Antibacterial activity against Klebsiella pneumoniae ATCC 15490 at 200 ug/mL after 24 hrs by twofold serial dilution method; assay type: functional, organism-based
Rhizopus [11] = assay: Antifungal activity against Rhizopus sp. ATCC 2915 at 200 ug/mL after 72 to 96 hrs by twofold serial dilution method; assay type: functional, organism-based
Bacillus subtilis [12] = assay: Antibacterial activity against Bacillus subtilis ATCC 451 at 200 ug/mL after 24 hrs by twofold serial dilution method; assay type: functional, organism-based
Aspergillus flavus [13] = assay: Antifungal activity against Aspergillus flavus ATCC 485 at 200 ug/mL after 72 to 96 hrs by twofold serial dilution method; assay type: functional, organism-based
Escherichia coli [14] = assay: Antibacterial activity against Escherichia coli ATCC 25835 at 200 ug/mL after 24 hrs by twofold serial dilution method; assay type: functional, organism-based
Salmonella typhi [15] = assay: Antibacterial activity against Salmonella typhi ATCC 24915 at 200 ug/mL after 24 hrs by twofold serial dilution method; assay type: functional, organism-based; settings: Salmonella enterica subsp. enterica serovar Typhi

| SMILES | MIC (Aspergillus flavus [1]) | MIC (Escherichia coli [2]) | MIC (Staphylococcus aureus) | MIC (Klebsiella pneumoniae [3]) | MIC (Candida albicans) | MIC (Bacillus subtilis [4]) | MIC (Salmonella typhi [5]) | Activity (Cryptococcus neoformans [6]) | MIC (Aspergillus niger) | MIC (Rhizopus [7]) | MIC (Cryptococcus neoformans [8]) | Ratio (Escherichia coli [9]) | Activity (Klebsiella pneumoniae [10]) | Activity (Rhizopus [11]) | Activity (Bacillus subtilis [12]) | Activity (Aspergillus flavus [13]) | Activity (Escherichia coli [14]) | Activity (Salmonella typhi [15]) |
| --- | --- | --- | --- | --- | --- | --- | --- | --- | --- | --- | --- | --- | --- | --- | --- | --- | --- | --- |
| Fc1ccc([C@H]2N[C@@H](c3ccc(F)cc3)C3CCCC2/C3=N/N=c2\scc(-c3ccccc3)n2-c2ccccc2)cc1 | 200 µg/mL (≈ 347 µM) | 100 µg/mL (≈ 173 µM) | 12.5 µg/mL (≈ 21.7 µM) | 100 µg/mL (≈ 173 µM) | 12.5 µg/mL (≈ 21.7 µM) | 6.25 µg/mL (≈ 10.8 µM) | 50 µg/mL (≈ 86.7 µM) | inactive | 100 µg/mL (≈ 173 µM) | 50 µg/mL (≈ 86.7 µM) |  |  |  |  |  |  |  |  |
| Clc1ccc([C@H]2N[C@@H](c3ccc(Cl)cc3)C3CCCC2/C3=N/N=c2/[nH]c(-c3ccccc3)cs2)cc1 | 25 µg/mL (≈ 46.9 µM) | 100 µg/mL (≈ 187 µM) | 25 µg/mL (≈ 46.9 µM) | 100 µg/mL (≈ 187 µM) | 200 µg/mL (≈ 375 µM) | 25 µg/mL (≈ 46.9 µM) | 50 µg/mL (≈ 93.7 µM) |  | 25 µg/mL (≈ 46.9 µM) | 50 µg/mL (≈ 93.7 µM) | 200 µg/mL (≈ 375 µM) |  |  |  |  |  |  |  |
| C[C@@H]1[C@H](O)[C@@H](C)/C=C/C=C/C=C/C=C/C=C/C=C/C=C/[C@H](O[C@@H]2O[C@H](C)[C@@H](O)[C@H](N)[C@@H]2O)C[C@@H]2O[C@](O)(C[C@@H](O)C[C@@H](O)[C@H](O)CC[C@@H](O)C[C@@H](O)CC(=O)O[C@H]1C)C[C@H](O)[C@H]2C(=O)O [AMPHOTERICIN B] | 50 µg/mL (≈ 54.1 µM) |  |  |  | 25 µg/mL (≈ 27.1 µM) |  |  |  | 50 µg/mL (≈ 54.1 µM) | 25 µg/mL (≈ 27.1 µM) | 25 µg/mL (≈ 27.1 µM) |  |  |  |  |  |  |  |
| Clc1ccccc1[C@H]1N[C@@H](c2ccccc2Cl)C2CCCC1/C2=N/N=c1/[nH]c(-c2ccccc2)cs1 | 50 µg/mL (≈ 93.7 µM) | 6.25 µg/mL (≈ 11.7 µM) | 100 µg/mL (≈ 187 µM) | 100 µg/mL (≈ 187 µM) | 25 µg/mL (≈ 46.9 µM) | 12.5 µg/mL (≈ 23.4 µM) | 25 µg/mL (≈ 46.9 µM) |  | 100 µg/mL (≈ 187 µM) | 100 µg/mL (≈ 187 µM) | 6.25 µg/mL (≈ 11.7 µM) | 1 |  |  |  |  |  |  |
| Fc1ccc([C@H]2N[C@@H](c3ccc(F)cc3)C3CCCC2/C3=N/N=c2/[nH]c(-c3ccccc3)cs2)cc1 | 6.25 µg/mL (≈ 12.5 µM) | 50 µg/mL (≈ 99.9 µM) | 200 µg/mL (≈ 400 µM) | 12.5 µg/mL (≈ 25 µM) | 100 µg/mL (≈ 200 µM) | 12.5 µg/mL (≈ 25 µM) | 50 µg/mL (≈ 99.9 µM) |  | 12.5 µg/mL (≈ 25 µM) | 50 µg/mL (≈ 99.9 µM) | 100 µg/mL (≈ 200 µM) |  |  |  |  |  |  |  |
| c1ccc(-c2cs/c(=N\N=C3\C4CCCC3[C@H](c3ccccc3)N[C@@H]4c3ccccc3)n2-c2ccccc2)cc1 | 100 µg/mL (≈ 185 µM) | 200 µg/mL (≈ 370 µM) | 25 µg/mL (≈ 46.2 µM) |  | 12.5 µg/mL (≈ 23.1 µM) | 100 µg/mL (≈ 185 µM) | 100 µg/mL (≈ 185 µM) |  | 200 µg/mL (≈ 370 µM) | 200 µg/mL (≈ 370 µM) | 50 µg/mL (≈ 92.5 µM) |  | inactive |  |  |  |  |  |
| Fc1cccc([C@H]2N[C@@H](c3cccc(F)c3)C3CCCC2/C3=N/N=c2\scc(-c3ccccc3)n2-c2ccccc2)c1 | 200 µg/mL (≈ 347 µM) | 12.5 µg/mL (≈ 21.7 µM) | 50 µg/mL (≈ 86.7 µM) | 100 µg/mL (≈ 173 µM) | 12.5 µg/mL (≈ 21.7 µM) | 100 µg/mL (≈ 173 µM) | 12.5 µg/mL (≈ 21.7 µM) |  | 25 µg/mL (≈ 43.3 µM) | 100 µg/mL (≈ 173 µM) | 200 µg/mL (≈ 347 µM) |  |  |  |  |  |  |  |
| Fc1cccc([C@H]2N[C@@H](c3cccc(F)c3)C3CCCC2/C3=N/N=c2/[nH]c(-c3ccccc3)cs2)c1 | 100 µg/mL (≈ 200 µM) | 25 µg/mL (≈ 49.9 µM) | 12.5 µg/mL (≈ 25 µM) | 25 µg/mL (≈ 49.9 µM) | 100 µg/mL (≈ 200 µM) |  | 200 µg/mL (≈ 400 µM) |  | 200 µg/mL (≈ 400 µM) |  | 50 µg/mL (≈ 99.9 µM) |  |  | inactive | inactive |  |  |  |
| Cc1ccc([C@H]2N[C@@H](c3ccc(C)cc3)C3CCCC2/C3=N/N=c2/[nH]c(-c3ccccc3)cs2)cc1 | 200 µg/mL (≈ 406 µM) | 12.5 µg/mL (≈ 25.4 µM) | 200 µg/mL (≈ 406 µM) | 200 µg/mL (≈ 406 µM) | 200 µg/mL (≈ 406 µM) | 50 µg/mL (≈ 101 µM) | 200 µg/mL (≈ 406 µM) | inactive | 50 µg/mL (≈ 101 µM) | 12.5 µg/mL (≈ 25.4 µM) |  |  |  |  |  |  |  |  |
| c1ccc(-c2cs/c(=N\N=C3\C4CCCC3[C@H](c3ccccc3)N[C@@H]4c3ccccc3)[nH]2)cc1 |  |  | 25 µg/mL (≈ 53.8 µM) | 100 µg/mL (≈ 215 µM) | 200 µg/mL (≈ 430 µM) | 200 µg/mL (≈ 430 µM) | 100 µg/mL (≈ 215 µM) |  | 50 µg/mL (≈ 108 µM) | 200 µg/mL (≈ 430 µM) | 100 µg/mL (≈ 215 µM) |  |  |  |  | inactive | inactive |  |
| CN[C@@H]1[C@H](O[C@H]2[C@H](O[C@H]3[C@H](O)[C@@H](O)[C@H](N=C(N)N)[C@@H](O)[C@@H]3N=C(N)N)O[C@@H](C)[C@]2(O)C=O)O[C@@H](CO)[C@H](O)[C@H]1O [STREPTOMYCIN] |  | 12.5 µg/mL (≈ 21.5 µM) | 50 µg/mL (≈ 86 µM) | 25 µg/mL (≈ 43 µM) |  | 12.5 µg/mL (≈ 21.5 µM) | 50 µg/mL (≈ 86 µM) |  |  |  |  |  |  |  |  |  |  |  |
| COc1ccc([C@H]2N[C@@H](c3ccc(OC)cc3)C3CCCC2/C3=N/N=c2/[nH]c(-c3ccccc3)cs2)cc1 | 12.5 µg/mL (≈ 23.8 µM) | 100 µg/mL (≈ 191 µM) | 25 µg/mL (≈ 47.6 µM) | 200 µg/mL (≈ 381 µM) | 100 µg/mL (≈ 191 µM) |  |  |  | 25 µg/mL (≈ 47.6 µM) | 100 µg/mL (≈ 191 µM) | 12.5 µg/mL (≈ 23.8 µM) |  |  |  | inactive |  |  | inactive |
| Clc1ccc([C@H]2N[C@@H](c3ccc(Cl)cc3)C3CCCC2/C3=N/N=c2\scc(-c3ccccc3)n2-c2ccccc2)cc1 | 100 µg/mL (≈ 164 µM) | 100 µg/mL (≈ 164 µM) | 25 µg/mL (≈ 41 µM) |  | 100 µg/mL (≈ 164 µM) | 12.5 µg/mL (≈ 20.5 µM) | 25 µg/mL (≈ 41 µM) |  | 25 µg/mL (≈ 41 µM) | 6.25 µg/mL (≈ 10.3 µM) | 50 µg/mL (≈ 82 µM) |  | inactive |  |  |  |  |  |
